According to US20220324865A1 (Bayer Aktiengesellschaft, priority 2018, published 2022):

These molecules were tested against T1, human EP3 receptor (Homo sapiens, UniProt P43115) (assay: Cellular in vitro assay for determining EP3 receptor activity (human EP3 cell line, sulprostone-stimulated calcium luminescence)). Conditions: CHO cells expressing human EP3 and mitochondrial Clytin; antagonist mode, sulprostone at EC50; read-out: EP3 CHO mtCLY ANTAG IC50.
T1 construct: expressed in transfected cells; host or cells: CHO K1 (Chinese Hamster Ovary), stably co-transfected with Galpha16 and mitochondrial clytin
T1 sequence (P43115 1-390): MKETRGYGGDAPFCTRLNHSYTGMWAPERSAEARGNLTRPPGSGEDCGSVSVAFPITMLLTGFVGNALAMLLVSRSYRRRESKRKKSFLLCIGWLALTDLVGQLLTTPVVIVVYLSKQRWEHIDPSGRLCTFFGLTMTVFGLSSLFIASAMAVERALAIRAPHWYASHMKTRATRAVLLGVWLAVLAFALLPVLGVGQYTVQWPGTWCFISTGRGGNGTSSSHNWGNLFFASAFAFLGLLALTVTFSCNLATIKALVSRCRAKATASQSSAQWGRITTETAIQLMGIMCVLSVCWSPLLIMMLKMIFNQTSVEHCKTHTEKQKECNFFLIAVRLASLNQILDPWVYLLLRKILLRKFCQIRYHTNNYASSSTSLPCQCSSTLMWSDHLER
Type: cell-based
In short: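 Antagonist activity was measured as inhibition of the luminescent calcium signal elicited by EC50 sulprostone, following 10 min compound pretreatment. The cell line was recombinant CHO K1 co-expressing human EP3, Gα16 and the photoprotein Clytin, reconstituted with coelenterazine.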

Going from `Cc1cccc2ncc(-c3cn4nc(C(=O)NC5(c6ccc(C#N)cc6)CC5)c(C(C)C)c4c(=O)[nH]3)cc12` [Example 4-3, N-[1-(4-Cyanophenyl)cyclopropyl]-6-(5-methylquinolin-3-yl)-4-oxo-3-(propan-2-yl)-4,5-dihydropyrazolo[1,5-a]pyrazine-2-carboxamide] to `Cc1cccc2ncc(-c3cn4nc(C(=O)NCCn5ccc(C6CC6)n5)c(C(C)C)c4c(=O)[nH]3)cc12` [Example 4-40, N-[2-(3-Cyclopropyl-1H-pyrazol-1-yl)ethyl]-6-(5-methylquinolin-3-yl)-4-oxo-3-(propan-2-yl)-4,5-dihydropyrazolo[1,5-a]pyrazine-2-carboxamide], the IC50 falls from 1.65 nM to 0.85 nM (1.9-fold). The second is the more potent here.

Going from `Cc1cc(-c2cn3nc(C(=O)NCC(O)(C(F)(F)F)C(F)(F)F)c(C4CC4)c3c(=O)[nH]2)ccc1Cl` [6-305] to `Cc1cc(-c2cn3nc(C(=O)NCC(N)C(F)(F)F)c(C4CC4)c3c(=O)[nH]2)ccc1C(F)(F)F` (single isomer, unassigned) [6-131], the IC50 rises from 2.95 nM to 10.1 nM (3.4-fold). The first is the more potent here.

First: COC[C@@H](NC(=O)c1nn2cc(-c3ccc(C(F)(F)F)c(C)c3)[nH]c(=O)c2c1C1CC1)c1ccccc1 [6-135]
Second: Cc1ccc(-c2cn3nc(C(=O)N[C@@H](c4ccc(F)cc4)C(C)(C)O)c(C4CC4)c3c(=O)[nH]2)cc1C(F)(F)F [6-246]
The IC50 of the first is 2.3-fold lower: 2.55 nM for the first, 5.8 nM for the second. The first is the more potent here.

First: CC(NC(=O)c1cc2c(=O)[nH]c(-c3ccc4ccccc4c3)cn2n1)c1ccc(O)cc1 (single isomer, unassigned) [6-543]
Second: O=C(N[C@H](CCO)c1ccc(F)cc1)c1cc2c(=O)[nH]c(-c3ccc4ccccc4c3)cn2n1 [Example 1-52, N-[(1R)-1-(4-Fluorophenyl)-3-hydroxpropyl]-6-(naphthalen-2-yl)-4-oxo-4,5-dihydropyrazolo-[1,5-a]pyrazine-2-carboxamide]
The IC50 of the first is 2.1-fold lower: 3.3 nM for the first, 6.95 nM for the second. The first is the more potent here.

First: Cc1cc(-c2cn3nc(C(=O)N[C@@H](c4ccc(F)cc4)C(C)(C)O)c(C(C)C)c3c(=O)[nH]2)ccc1Cl [6-606]
Second: COCc1c(C(=O)N[C@@H](c2ccc(F)cc2)C(C)(C)O)nn2cc(-c3ccc(Cl)c(F)c3)[nH]c(=O)c12 [6-625]
The IC50 of the first is 4.3-fold lower: 2.3 nM for the first, 9.95 nM for the second. The first is the more potent here.

`Cc1ccc(-c2cn3nc(C(=O)NCCN(CC(F)F)C4CC4)c(C(F)(F)F)c3c(=O)[nH]2)cc1Cl` [6-152] and `Cc1ccc(-c2cn3nc(C(=O)N[C@H]4CCOC4)c(C(F)(F)F)c3c(=O)[nH]2)cc1Cl` [6-186] are within 1.5-fold of each other in IC50: 4.75 nM for the first, 5.35 nM for the second.

First: O=C(N[C@@H]1CCN(CC(F)(F)F)C1)c1nn2cc(-c3ccc4ccccc4c3)[nH]c(=O)c2c1C(F)(F)F (racemic) [6-521]
Second: CN1CCC(NC(=O)c2nn3cc(-c4ccc5ccccc5c4)[nH]c(=O)c3c2C(F)(F)F)(c2ccc(F)cc2)C1 (racemic) [6-510]
The IC50 of the first is 3.8-fold lower: 2.23 nM for the first, 8.53 nM for the second. The first is the more potent here.

First: C[C@@H](NC(=O)c1nn2cc(-c3ccc4ccccc4c3)[nH]c(=O)c2c1C1CC1)c1ccc(F)cc1 [Example 1-81]
Second: O=C(N[C@H](CCO)c1ccc(F)cc1)c1nn2cc(-c3ccc(Cl)cc3)[nH]c(=O)c2c1C1CC1 [6-674]
The IC50 of the first is 2-fold higher: 1.59 nM for the first, 0.79 nM for the second. The second is the more potent here.

First: Cc1ccc(-c2cn3nc(C(=O)NCC(O)C(F)(F)F)c(C)c3c(=O)[nH]2)cc1F (single isomer, unassigned) [6-410]
Second: Cc1cc(-c2cn3nc(C(=O)NCC(N)C(F)(F)F)c(C4CC4)c3c(=O)[nH]2)ccc1C(F)(F)F (racemic) [6-130]
The IC50 of the first is 5.7-fold lower: 5.18 nM for the first, 29.5 nM for the second. The first is the more potent here.

First: O=C(NC(CO)c1ccc(F)cc1)c1cc2c(=O)[nH]c(-c3ccc4cccc(F)c4c3)cn2n1 (stereo not shown) [6-37]
Second: O=C(N[C@@H](CCO)c1ccc(F)cc1)c1cc2c(=O)[nH]c(-c3ccc4ccccc4c3)cn2n1 [Example 1-69, N-[(1S)-1-(4-Fluorophenyl)-3-hydroxypropyl]-6-(naphthalen-2-yl)-4-oxo-4,5-dihydropyrazolo-[1,5-a]pyrazine-2-carboxamide]
The IC50 of the first is 1.7-fold lower: 1.31 nM for the first, 2.25 nM for the second. The first is the more potent here.

First: CCn1ccc(C(C)NC(=O)c2nn3cc(-c4cnc5cccc(C)c5c4)[nH]c(=O)c3c2C(C)C)n1 (stereo not shown) [Example 4-13, N-[1-(1-Ethylpyrazol-3-yl)ethyl]-3-isopropyl-6-(5-methyl-3-quinolyl)-4-oxo-5H-pyrazolo[1,5-a]pyrazine-2-carboxamide]
Second: Cc1cc(-c2cn3nc(C(=O)NC4(c5ccc(F)cc5)CN(C)C4)c(C(C)C)c3c(=O)[nH]2)ccc1Cl [6-607]
The IC50 of the first is 2-fold lower: 1.45 nM for the first, 2.95 nM for the second.

First: O=C(N[C@@H]1c2ccccc2C[C@@H]1O)c1cc2c(=O)[nH]c(-c3ccc4ccccc4c3)cn2n1 [6-74]
Second: O=C(N[C@@H]1CCCc2ccccc21)c1cc2c(=O)[nH]c(-c3ccc4ccccc4c3)cn2n1 [Example 2-43, 6-(2-Naphthyl)-4-oxo-N-[(7R)-1,2,3,4-tetrahydronaphthalin-1-yl]-4,5-dihydropyrazolo[1,5-a]pyrazine-2-carboxamide]
The IC50 of the first is 1.6-fold higher: 5.77 nM for the first, 3.7 nM for the second.

`CC[C@@H](C)NC(=O)c1nn2cc(-c3ccc(Cl)c(C)c3)[nH]c(=O)c2c1C1CC1` [6-332] and `Cc1ccc(-c2cn3nc(C(=O)N[C@@H](C)CCO)c(C4CC4)c3c(=O)[nH]2)cc1Cl` [6-270] are within 1.5-fold of each other in IC50: 2 nM for the first, 2.67 nM for the second.

First: COc1cccc(C(CCO)NC(=O)c2nn3c(C)c(-c4ccc5ccccc5c4)[nH]c(=O)c3c2C)c1 (stereo not shown) [Example 3-39, N-[3-Hydroxy-1-(3-methoxyphenyl)propyl]-3,7-dimethyl-6-(2-naphthyl)-4-oxo-5H-pyrazolo[1,5-a]pyrazine-2-carboxamide]
Second: Cc1c(C(=O)NCc2cccc(CN(C)C)c2)nn2c(C)c(-c3ccc4ccccc4c3)[nH]c(=O)c12 [Example 3-42, N-({3-[(Dimethylamino)methyl]phenyl}methyl)-3,7-dimethyl-6-(naphthalen-2-yl)-4-oxo-4,5-dihydropyrazolo[1,5-a]pyrazine-2-carboxamide]
The IC50 of the first is 2.7-fold lower: 1.8 nM for the first, 4.9 nM for the second. The first is the more potent here.

Going from `Cc1ccc(-c2cn3nc(C(=O)N[C@@H](c4ccc(F)cc4)C(F)(F)CO)c(C(F)(F)C(F)(F)F)c3c(=O)[nH]2)cc1Cl` [6-487] to `Cc1cc(-c2cn3nc(C(=O)N[C@@H](c4ccc(F)cc4)C(F)(F)CO)c(C(F)(F)C(F)(F)F)c3c(=O)[nH]2)ccc1Cl` [6-477], the IC50 falls from 0.67 nM to 0.44 nM (1.5-fold).

Going from `CN1CCOc2cc(-c3cn4nc(C(=O)N[C@H](CCO)c5ccc(F)cc5)cc4c(=O)[nH]3)ccc21` [Example 1-37, N-[(1R)-1-(4-Fluorophenyl)-3-hydroxopyl]-6-(4-methyl-3,4-dihydro-2H-1,4-benzoxazin-7-yl)-4-oxo-4,5-dihydropyrazolo[1,5-a]pyrazine-2-carboxamide] to `Cc1ccc(-c2cn3nc(C(=O)N[C@@H](CCO)c4ccc(F)cc4)cc3c(=O)[nH]2)cc1C` [Example 1-70, 6-(3,4-Dimethylphenyl)-N-[(1S)-1-(4-fluorophenyl)-3-hydroxpropyl]-4-oxo-4,5-dihydropyrazolo-[1,5-a]pyrazine-2-carboxamide], the IC50 rises from 0.95 nM to 3.15 nM (3.3-fold). The first is the more potent here.

Going from `Cc1cc(-c2cn3nc(C(=O)NC4(c5ccc(F)cc5)CN(C)C4)c(C4CC4)c3c(=O)[nH]2)c(F)cc1Cl` [6-593] to `Cc1ccc(-c2cn3nc(C(=O)NC4(c5ccc(F)cc5)CN(CC(F)F)C4)c(C(F)(F)F)c3c(=O)[nH]2)cc1Cl` [6-202], the IC50 falls from 8.43 nM to 0.97 nM (8.7-fold). The second is the more potent here.

First: Cc1cc(-c2cn3nc(C(=O)N[C@H](CN4CCC(F)(F)C4)c4ccc(F)cc4)c(C4CC4)c3c(=O)[nH]2)ccc1Cl [6-339]
Second: O=C(N[C@H](CCO)c1ccc(F)cc1)c1nn2cc(-c3ccc(Cl)c(Cl)c3)[nH]c(=O)c2c1C1CC1 [6-425]
The IC50 of the first is 14-fold higher: 7.15 nM for the first, 0.52 nM for the second.

First: CCN1CCC(NC(=O)c2nn3cc(-c4ccc(Cl)c(C)c4)[nH]c(=O)c3c2C2CC2)(C(F)(F)F)C1 (single isomer, unassigned) [6-294]
Second: Cc1cc(-c2cn3nc(C(=O)NC(C)(C)C4CC4)c(C4CC4)c3c(=O)[nH]2)ccc1Cl [6-301]
The IC50 of the first is 7.1-fold higher: 9.95 nM for the first, 1.4 nM for the second. The second is the more potent here.

Going from `COC[C@@H](NC(=O)c1nn2cc(-c3ccc4ccccc4c3)[nH]c(=O)c2c1C#N)c1ccccc1` [Example 1-60, 3-Cyano-N-[(1S)-2-methoxy-1-phenylethyl]-6-(naphthalen-2-yl)-4-oxo-4,5-dihydropyrazolo[1,5-a]-pyrazine-2-carboxamide] to `O=C(N[C@@H](c1ccc(F)cc1)C(F)(F)CO)c1nn2cc(-c3cccc(Cl)c3)[nH]c(=O)c2c1C1CC1` [6-678], the IC50 rises from 2.7 nM to 5.2 nM (1.9-fold). The first is the more potent here.

First: Cc1ccc(-c2cn3nc(C(=O)N[C@@H](C)CO)c(C4CCC4)c3c(=O)[nH]2)cc1C [6-578]
Second: Cc1ccc(-c2cn3nc(C(=O)N[C@@H](c4ccc(F)cc4)C(C)(C)O)c(C4CC4)c3c(=O)[nH]2)cc1F [Example 1-158]
The IC50 of the first is 2.3-fold higher: 2.3 nM for the first, 0.983 nM for the second.

Going from `Cc1ccc(-c2cn3nc(C(=O)N[C@@H](c4ccc(F)cc4)C(C)(C)O)c(C4CC4(F)F)c3c(=O)[nH]2)cc1Cl` (stereo partly shown) [6-563] to `CCN1CC(NC(=O)c2nn3cc(-c4ccc(C)c(C)c4)[nH]c(=O)c3c2C(F)(F)F)(c2ccc(F)cc2)C1` [Example 1-176, 6-(3,4-Dimethylphenyl)-N-[1-ethyl-3-(4-fluorophenyl)azetidin-3-yl]-4-oxo-3-(trifluoromethyl)-4,5-dihydropyrazolo[1,5-a]pyrazine-2-carboxamide], the IC50 falls from 2.9 nM to 1.67 nM (1.7-fold).

Going from `COc1ccc([C@@H](C)NC(=O)c2cc3c(=O)[nH]c(-c4ccc5c(c4F)OCCO5)cn3n2)cn1` [Example 1-108, 6-(5-Fluoro-2,3-dihydro-1,4-benzodioxin-6-yl)-N-[(1R)-1-(6-methoxpyridin-3-yl)ethyl]-4-oxo-4,5-dihydropyrazolo[1,5-a]pyrazine-2-carboxamide] to `C[C@H](NC(=O)c1nn2cc(-c3cc(F)c(Cl)c(F)c3)[nH]c(=O)c2c1C1CC1)C1CC1` [6-472], the IC50 falls from 2.5 nM to 1.16 nM (2.2-fold).
